Tests used:
wheat = test: Test B pre/postemergence wheat; format: in vivo, Triticum aestivum
In short: (§1)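 Herbicidal effect was estimated by eye on a ten-point control scale after plants spent twelve to sixteen days in a greenhouse following soil or foliar treatment. Foliar sprays targeted plants at one to four leaves; all doses were formulated in a non-phytotoxic solvent with surfactant.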

pigweed = test: Test B pre/postemergence pigweed; format: in vivo, Amaranthus retroflexus
In short: as §1

velvetleaf = test: Test B pre/postemergence velvetleaf; format: in vivo, Abutilon theophrasti
In short: as §1

smallflower flatsedge = test: Test B flood test smallflower flatsedge; format: in vivo, Cyperus difformis
In short: (§2)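 Read-out is a visual response score from 0 (no effect) to 10 (complete control), assigned by comparison with untreated controls. Treatment was applied at the 2-leaf stage, and plants stayed in the greenhouse for twelve to sixteen days before scoring.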

duck salad = test: Test B flood test duck salad; format: in vivo, Heteranthera limosa
In short: as §2

rape = test: Test B pre/postemergence rape; format: in vivo, Brassica napus
In short: as §1

sugar beet = test: Test B pre/postemergence sugar beet; format: in vivo, Beta vulgaris
In short: as §1

bedstraw = test: Test B pre/postemergence bedstraw; format: in vivo, Galium aparine
In short: as §1

soybean = test: Test B pre/postemergence soybean; format: in vivo, Glycine max
In short: as §1

bamyardgrass = test: Test B flood test barnyardgrass; format: in vivo, Echinochloa crus-galli
In short: as §2

rice = test: Test B flood test rice; format: in vivo, Oryza sativa
In short: as §2

purple nutsedge = test: Test B pre/postemergence purple nutsedge; format: in vivo, Cyperus rotundus
In short: as §1

wild oat = test: Test B pre/postemergence wild oat; format: in vivo, Avena fatua
In short: as §1

morningglory = test: Test B pre/postemergence morningglory; format: in vivo, Ipomoea hederacea
In short: as §1

giant foxtail = test: Test B pre/postemergence giant foxtail; format: in vivo, Setaria faberii
In short: as §1

blackgrass = test: Test B pre/postemergence blackgrass; format: in vivo, Alopecurus myosuroides
In short: as §1

[1] = Preemergence, Rate 62 g/ha, scale of 0 to 10 where 0 is no effect and 10 is complete control
[2] = Preemergence, Rate 250 g/ha, scale of 0 to 10 where 0 is no effect and 10 is complete control
[3] = Preemergence, Rate 500 g/ha, scale of 0 to 10 where 0 is no effect and 10 is complete control
[4] = Rate 62 g/ha, Postemergence, scale 0 to 10 (0 no effect, 10 complete control)
[5] = Rate 125 g/ha, Postemergence, scale of 0 to 10 where 0 is no effect and 10 is complete control
[6] = Rate 125 g/ha, Preemergence, scale of 0 to 10 where 0 is no effect and 10 is complete control
[7] = Rate 250 g/ha, Postemergence, scale of 0 to 10 where 0 is no effect and 10 is complete control
[8] = Rate 62 g/ha, headed Pre-emergence (flood test species), scale 0 to 10 (0 no effect, 10 complete control)
[9] = Rate 125 g/ha, Pre-emergence, flood test species, scale 0 to 10 where 0 is no effect and 10 is complete control
[10] = Rate 250 g/ha, Pre-emergence, flood-test species, scale 0 to 10, 0 is no effect, 10 is complete control
[11] = Rate 500 g/ha, Pre-emergence, flood test species, scale 0 to 10 (0 no effect, 10 complete control)
[12] = Rate 500 g/ha, Postemergence, scale 0 to 10, 0 no effect, 10 complete control

## COCn1c(=O)on(C(=O)N(c2ccc(F)cc2)C(C)C)c1=O [Compound 293]
wheat; [1]
  Wheat plant response rating: 2
wheat; [2]
  Wheat plant response rating: 8
wheat; [3]
  Plant response rating, Wheat: 9
wheat; [4]
  Wheat plant response rating: 2
wheat; [5]
  Wheat plant response rating: 6
wheat; [6]
  Wheat plant response rating: 7
wheat; [7]
  Plant response rating, Wheat: 7
pigweed; [1]
  Redroot pigweed plant response rating: 6
pigweed; [2]
  Redroot pigweed plant response rating: 10
pigweed; [3]
  Plant response rating, Redroot pigweed: 10
pigweed; [4]
  Redroot pigweed plant response rating: 0
pigweed; [5]
  Redroot pigweed plant response rating: 2
pigweed; [6]
  Redroot pigweed plant response rating: 8
pigweed; [7]
  Plant response rating, Redroot pigweed: 2
velvetleaf; [1]
  Velvetleaf plant response rating: 4
velvetleaf; [2]
  Velvetleaf plant response rating: 7
velvetleaf; [3]
  Plant response rating, Velvetleaf: 8
velvetleaf; [4]
  Velvetleaf plant response rating: 0
velvetleaf; [5]
  Velvetleaf plant response rating: 2
velvetleaf; [6]
  Velvetleaf plant response rating: 4
velvetleaf; [7]
  Plant response rating, Velvetleaf: 2
Smallflower flatsedge; [8]
  S. Flatsedge plant response rating: 0
Smallflower flatsedge; [9]
  S. Flatsedge plant response rating: 0
Smallflower flatsedge; [10]
  S. Flatsedge plant response rating: 0
Smallflower flatsedge; [11]
  S. Flatsedge plant response rating: 0
Duck salad; [8]
  Ducksalad plant response rating: 0
Duck salad; [9]
  Ducksalad plant response rating: 0
Duck salad; [10]
  Ducksalad plant response rating: 0
Duck salad; [11]
  Ducksalad plant response rating: 0
rape; [1]
  Rape plant response rating: 0
rape; [2]
  Rape plant response rating: 8
rape; [3]
  Plant response rating, Rape: 10
rape; [4]
  Rape plant response rating: 0
rape; [5]
  Rape plant response rating: 0
rape; [6]
  Rape plant response rating: 6
rape; [7]
  Plant response rating, Rape: 0
Sugar beet; [1]
  Sugarbeets plant response rating: 0
Sugar beet; [2]
  Sugarbeets plant response rating: 4
Sugar beet; [3]
  Plant response rating, Sugarbeets: 8
Sugar beet; [4]
  Sugarbeets plant response rating: 0
Sugar beet; [5]
  Sugarbeets plant response rating: 0
Sugar beet; [6]
  Sugarbeets plant response rating: 4
Sugar beet; [7]
  Plant response rating, Sugarbeets: 3
bedstraw; [1]
  Bedstraw plant response rating: 0
bedstraw; [2]
  Bedstraw plant response rating: 0
bedstraw; [3]
  Plant response rating, Bedstraw: 0
bedstraw; [4]
  Bedstraw plant response rating: 0
bedstraw; [5]
  Bedstraw plant response rating: 2
bedstraw; [6]
  Bedstraw plant response rating: 0
bedstraw; [7]
  Plant response rating, Bedstraw: 3
bedstraw; [12]
  Bedstraw plant response rating: 9
soybean; [1]
  Soybean plant response rating: 0
soybean; [2]
  Soybean plant response rating: 2
soybean; [3]
  Plant response rating, Soybean: 2
soybean; [4]
  Soybean plant response rating: 1
soybean; [5]
  Soybean plant response rating: 2
soybean; [6]
  Soybean plant response rating: 0
soybean; [7]
  Plant response rating, Soybean: 2
bamyardgrass; [8]
  Barnyardgrass plant response rating: 0
bamyardgrass; [9]
  Barnyardgrass plant response rating: 0
bamyardgrass; [10]
  Barnyardgrass plant response rating: 0
bamyardgrass; [11]
  Barnyardgrass plant response rating: 5
rice; [8]
  Rice plant response rating: 0
rice; [9]
  Rice plant response rating: 0
rice; [10]
  Rice plant response rating: 3
rice; [11]
  Rice plant response rating: 5
Purple nutsedge; [1]
  Nutsedge plant response rating: 0
Purple nutsedge; [2]
  Nutsedge plant response rating: 7
Purple nutsedge; [4]
  Nutsedge plant response rating: 0
Purple nutsedge; [5]
  Nutsedge plant response rating: 3
Purple nutsedge; [6]
  Nutsedge plant response rating: 0
Purple nutsedge; [7]
  Plant response rating, Nutsedge: 8
Wild oat; [1]
  Wild oats plant response rating: 1
Wild oat; [2]
  Wild oats plant response rating: 8
Wild oat; [3]
  Plant response rating, Wild oats: 9
Wild oat; [4]
  Wild oats plant response rating: 0
Wild oat; [5]
  Wild oats plant response rating: 0
Wild oat; [7]
  Plant response rating, Wild oats: 3
morningglory; [1]
  Morningglory plant response rating: 0
morningglory; [2]
  Morningglory plant response rating: 0
morningglory; [3]
  Plant response rating, Morningglory: 4
morningglory; [4]
  Morningglory plant response rating: 1
morningglory; [5]
  Morningglory plant response rating: 5
morningglory; [6]
  Morningglory plant response rating: 0
morningglory; [7]
  Plant response rating, Morningglory: 5
Giant foxtail; [1]
  Giant foxtail plant response rating: 9
Giant foxtail; [2]
  Giant foxtail plant response rating: 9
Giant foxtail; [3]
  Plant response rating, Giant foxtail: 10
Giant foxtail; [4]
  Giant foxtail plant response rating: 5
Giant foxtail; [5]
  Giant foxtail plant response rating: 8
Giant foxtail; [6]
  Giant foxtail plant response rating: 9
Giant foxtail; [7]
  Plant response rating, Giant foxtail: 8
blackgrass; [1]
  Blackgrass plant response rating: 7
blackgrass; [2]
  Blackgrass plant response rating: 9
blackgrass; [3]
  Plant response rating, Blackgrass: 9
blackgrass; [4]
  Blackgrass plant response rating: 5
blackgrass; [5]
  Blackgrass plant response rating: 9
blackgrass; [6]
  Blackgrass plant response rating: 7
blackgrass; [7]
  Plant response rating, Blackgrass: 9
blackgrass; [12]
  Blackgrass plant response rating: 9

— patent publication US6737383B1, “Herbicidal oxadiazolidines” (priority 1999, dated 2004)
